Measurements: patent US9914730B2, “Azaquinazoline inhibitors of Atypical protein Kinase C” (Ignyta, Inc., priority 2012, dated 2018)

molecular target: T1, full-length human PKCι (Homo sapiens, UniProt P41743); test: PKCι IC50 IMAP assay, full-length PKCι at 150 μM ATP; type: biochemical; conditions: read-out: IC50 in IMAP assay against full length PKCi at 150 μM ATP
T1 construct: Recombinant, full-length human PKCι expressed in Sf21 insect cells is also commercially available; purchased; host or cells: Sf21 insect cells
T1 sequence (P41743 1-596): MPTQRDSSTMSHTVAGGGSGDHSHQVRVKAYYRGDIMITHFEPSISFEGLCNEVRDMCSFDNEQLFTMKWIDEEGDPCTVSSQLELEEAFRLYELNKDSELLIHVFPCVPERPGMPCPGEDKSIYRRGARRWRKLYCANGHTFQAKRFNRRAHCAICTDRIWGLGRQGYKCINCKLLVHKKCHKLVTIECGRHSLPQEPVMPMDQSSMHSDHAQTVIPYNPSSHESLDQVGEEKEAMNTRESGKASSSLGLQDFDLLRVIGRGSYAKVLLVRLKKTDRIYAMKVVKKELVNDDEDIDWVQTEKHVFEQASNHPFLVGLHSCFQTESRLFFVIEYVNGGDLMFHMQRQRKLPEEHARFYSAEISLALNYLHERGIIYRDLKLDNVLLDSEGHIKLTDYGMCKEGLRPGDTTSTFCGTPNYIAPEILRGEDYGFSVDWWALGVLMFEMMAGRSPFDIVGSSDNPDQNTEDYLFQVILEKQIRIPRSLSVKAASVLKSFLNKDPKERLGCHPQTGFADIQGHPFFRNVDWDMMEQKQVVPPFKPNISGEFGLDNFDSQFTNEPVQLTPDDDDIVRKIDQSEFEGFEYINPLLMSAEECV
Excerpt: Assays are based on the ability of PKCι to phosphorylate a commercially available peptide substrate in vitro. The peptide substrate is FAM-PKCε pseudopeptide derived peptide, and comprises the amino acid sequence 5FAM-[…]-NH2. Recombinant, full-length human PKCι expressed in Sf21 insect cells is also commercially available. Recombinant, kinase-domain human PKCι is expressed and purified in-house.
The procedure below explains how dose response curves for inhibitors of PKCι are obtained. The screen described is for a 384 well format but the assay can be adapted to 1536 or other formats as required.
Compounds to be tested are dissolved in 100% DMSO. Compounds are diluted as required to give a final concentration of 4% DMSO (v/v) in the assay. 1 μl is plated into 384 well black low-binding flat bottomed assay plates which are used immediately. Dilutions and additions of compound to assay plates are carried out using Matrix WellMate® and Matrix PlateMate® Plus liquid handling systems.
On the day of the screen PKCι/substrate working solution, and ATP working solution, are prepared in buffer containing 20 mM tris-HCl pH7.5, 10 mM MgCl2, 0.01% Triton X100, 250 μM EGTA and 1 mM DTT. The final concentration of PKCι used varies depending on the batch of protein but is typically 15 pM. The final concentration of peptide substrate in the assay is 100 nM. ATP is used at a final concentration of 150 μM or 25 μM in the assays containing full-length or kinase-domain PKCι respectively, which corresponds to five times or equal to the KM^APP for ATP for each enzyme, respectively. The final buffer concentration in the assay is 18 mM tris-HCl pH7.5, 9 mM MgCl2, 0.009% Triton X100, 225 μM EGTA and 0.9 mM DTT. Relevant controls are included, namely no compound and no enzyme. 5 μl PKCι/substrate working solution at 30 pM and 200 nM, respectively, is added to the wells, followed by 4 μl ATP working solution at 375 μM or 62.5 μM for full-length or kinase-domain PKCι respectively, using a 16 channel Matrix pipette. The reaction is allowed to incubate for 60 minutes at room temperature, before the reaction is stopped and developed by the addition of 20 μl IMAP™ development reagent (Molecular Devices). IMAP development reagent consists of 0.25% (v/v) IMAP progressive binding reagent, 17% (v/v) IMAP progressive binding buffer A and 3% (v/v) IMAP progressive binding buffer B. The plates are then incubated for 2 hours at room temperature before being read using an appropriate plate reader, for example a Molecular Devices HT Analyst or a BMG Pherastar. Plates are read using a fluorescence polarisation protocol with excitation at 485 nm and emission at 530 nm, and dichroic mirror at 505 nm.
Percentage inhibition values are calculated from fluorescence polarisation values, using the no compound and no enzyme control values as 0% and 100% inhibition, respectively. IC50 determination is performed with ExcelFit software (IDBS) using curve fit 205. Z′ factors are determined for each plate tested and are all above 0.5.

`COc1cccc(Nc2cc(-c3nc(N4CCNCC4)c4c(C5CC5)cncc4n3)ccn2)c1C` [Example 591, [4-(5-Cyclopropyl-4-piperazin-1-yl-pyrido[3,4-d]pyrimidin-2-yl)-pyridin-2-yl]-(3-methoxy-2-methyl-phenyl)-amine] was tested. Which IC50 did it give?
The IC50 was < 100 nM.

For `COc1cncc2nc(-c3ccnc(NC4CCCCC4)c3)nc(N3CCNCC3)c12` [Example 242, Cyclohexyl-[4-(5-methoxy-4-piperazin-1-yl-pyrido[3,4-d]pyrimidin-2-yl)-pyridin-2-yl]-amine], which IC50 is on record?
Its IC50 is < 100 nM.

For `COc1cncc2nc(-c3ccncc3)nc(N3CCN[C@H](C)C3)c12` [Example 52, (3R)-1-[5-methoxy-2-(pyridin-4-yl)-pyrido[3,4-d]-pyrimidin-4-yl]-3-methylpiperazine], which IC50 is on record?
The IC50 was 1000 to 10000 nM.

How did the IC50 turn out when `CN(c1nc(-c2ccnc(Nc3ncc(F)cc3F)c2)nc2cncc(C3CC3)c12)C1CCNCC1` [Example 2095, {5-Cyclopropyl-2-[2-(3,5-difluoro-pyridin-2-ylamino)-pyridin-4-yl]-pyrido[3,4-d]pyrimidin-4-yl}-methyl-piperidin-4-yl-amine] was run?
Its IC50 is < 100 nM.

Which IC50 does the source give for `CC(=O)N1CCC(Nc2nc(-c3ccnc(Nc4c(F)cccc4F)c3)nc3cncc(C4CC4)c23)CC1` [Example 2085, 1-(4-{5-Cyclopropyl-2-[2-(2,6-difluoro-phenylamino)-pyridin-4-yl]-pyrido[3,4-d]pyrimidin-4-ylamino}-piperidin-1-yl)-ethanone] here?
The IC50 was 100 to 1000 nM.

`Fc1cccc(F)c1Nc1cc(-c2nc(NC3CNC3)c3c(C4CC4)cncc3n2)ccn1` [Example 2026, Azetidin-3-yl-{5-cyclopropyl-2-[2-(2,6-difluoro-phenylamino)-pyridin-4-yl]-pyrido[3,4-d]pyrimidin-4-yl}-amine] was tested. Which IC50 did it give?
Its IC50 is < 100 nM.

For `CC(=O)N1CCC(N(C)c2nc(-c3ccnc(Nc4c(F)cccc4F)c3)nc3cncc(C4CC4)c23)CC1` [Example 2096, 1-[4-({5-Cyclopropyl-2-[2-(2,6-difluoro-phenylamino)-pyridin-4-yl]-pyrido[3,4-d]pyrimidin-4-yl}-methyl-amino)-piperidin-1-yl]-ethanone], which IC50 is on record?
Its IC50 is 100 to 1000 nM.

With `Fc1ccc(F)c2c1[nH]c1nccc(-c3nc(N4CCNCC4)c4c(C5CC5)cncc4n3)c12` [Example 2027, 4-(5-Cyclopropyl-4-piperazin-1-yl-pyrido[3,4-d]pyrimidin-2-yl)-5,8-difluoro-9H-pyrido[2,3-b]indole] as the molecule, how does the IC50 read?
Its IC50 is < 100 nM.

For `CN(c1nc(-c2ccnc3[nH]c(C(F)(F)F)cc23)nc2cncc(C3CC3)c12)[C@@H]1CCNC1` [Example 2088, [5-Cyclopropyl-2-(2-trifluoromethyl-1H-pyrrolo[2,3-b]pyridin-4-yl)-pyrido[3,4-d]pyrimidin-4-yl]-methyl-(R)-pyrrolidin-3-yl-amine], which IC50 is on record?
The IC50 was < 100 nM.

For `FC(F)(F)c1ccc(Nc2cc(-c3nc(N4CCNCC4)c4c(C5CCC5)cncc4n3)ccn2)nc1` [Example 809, [4-(5-Cyclobutyl-4-piperazin-1-yl-pyrido[3,4-d]pyrimidin-2-yl)-pyridin-2-yl]-(5-trifluoromethyl-pyridin-2-yl)-amine], which IC50 is on record?
Its IC50 is < 100 nM.

With `CN1CCN(c2cccc(Nc3cc(-c4nc(N5CCNCC5)c5c(C6CC6)cncc5n4)ccn3)c2)CC1` [Example 681, [4-(5-Cyclopropyl-4-piperazin-1-yl-pyrido[3,4-d]pyrimidin-2-yl)-pyridin-2-yl]-[3-(4-methyl-piperazin-1-yl)-phenyl]-amine] as the molecule, how does the IC50 read?
Its IC50 is < 100 nM.

For `COc1cncc2nc(-c3ccnc(Nc4ccc(C5CCOCC5)cc4)c3)nc(N3CCNCC3)c12` [Example 362, [4-(5-Methoxy-4-piperazin-1-yl-pyrido[3,4-d]pyrimidin-2-yl)-pyridin-2-yl]-[4-(tetrahydro-pyran-4-yl)-phenyl]-amine], which IC50 is on record?
Its IC50 is < 100 nM.

With `c1cc2c(N[C@@H]3CCNC3)nc(-c3ccnc(Nc4ccc(N5CCOCC5)cn4)c3)nc2cn1` [Example 357, {2-[2-(5-Morpholin-4-yl-pyridin-2-ylamino)-pyridin-4-yl]-pyrido[3,4-d]pyrimidin-4-yl}-(R)-pyrrolidin-3-yl-amine] as the molecule, how does the IC50 read?
Its IC50 is < 100 nM.

For `c1ccn2nc(Nc3cc(-c4nc(N5CCNCC5)c5c(C6CC6)cncc5n4)ccn3)cc2c1` [Example 2072, [4-(5-Cyclopropyl-4-piperazin-1-yl-pyrido[3,4-d]pyrimidin-2-yl)-pyridin-2-yl]-pyrazolo[1,5-a]pyridin-2-yl-amine], which IC50 is on record?
Its IC50 is < 100 nM.

Which IC50 does the source give for `CC(C)(C)OC(=O)N1CCN(c2nc(-c3ccncc3)nc3cnccc23)CC1` [Example 22, tert-butyl 4-[2-(pyridin-4-yl)-pyrido[3,4-d]-pyrimidin-4-yl]-piperazine-1-carboxylate] here?
Its IC50 is 10000 to 40000 nM.

Which IC50 does the source give for `c1ccc2c(c1)CC(Nc1cc(-c3nc(N4CCNCC4)c4c(C5CC5)cncc4n3)ccn1)C2` [Example 2097] here?
The IC50 was < 100 nM.

For `COc1cncc2nc(-c3ccnc(Nc4ccccc4)c3)nc(N3CCC[C@H](O)C3)c12` [Example 425, (S)-1-[5-Methoxy-2-(2-phenylamino-pyridin-4-yl)-pyrido[3,4-d]pyrimidin-4-yl]-piperidin-3-ol], which IC50 is on record?
The IC50 was 1000 to 10000 nM.

With `Cn1cc(-c2ccc(Nc3cc(-c4nc(N5CCNCC5)c5c(C6CC6)cncc5n4)ccn3)c(F)c2)cn1` [Example 2130, [4-(5-Cyclopropyl-4-piperazin-1-yl-pyrido[3,4-d]pyrimidin-2-yl)-pyridin-2-yl]-[2-fluoro-4-(1-methyl-1H-pyrazol-4-yl)-phenyl]-amine] as the molecule, how does the IC50 read?
Its IC50 is < 100 nM.

`COc1cncc2nc(-c3ccnc(Nc4ccc(N(C)C)cc4)c3)nc(N[C@@H]3CCNC3)c12` [Example 226, N-{4-[5-Methoxy-4-((R)-pyrrolidin-3-ylamino)-pyrido[3,4-d]pyrimidin-2-yl]-pyridin-2-yl}-N′,N′-dimethyl-benzene-1,4-diamine] was tested. Which IC50 did it give?
Its IC50 is < 100 nM.

Which IC50 does the source give for `COc1cncc2nc(-c3ccnc(Nc4nc(C)co4)c3)nc(N3CCNCC3)c12` [Example 221, [4-(5-Methoxy-4-piperazin-1-yl-pyrido[3,4-d]pyrimidin-2-yl)-pyridin-2-yl]-(4-methyl-oxazol-2-yl)-amine] here?
The IC50 was < 100 nM.

`COc1cc2nccc(-c3nc(N4CCNCC4)c4c(C5CC5)cncc4n3)c2cc1OC` [Example 579, 5-Cyclopropyl-2-(6,7-dimethoxy-quinolin-4-yl)-4-piperazin-1-yl-pyrido[3,4-d]pyrimidine] was tested. Which IC50 did it give?
Its IC50 is 10000 to 40000 nM.

Which IC50 does the source give for `c1ccc2c(c1)CC[C@@H]2Nc1cc(-c2nc(N3CCNCC3)c3c(C4CC4)cncc3n2)ccn1` [Example 2099, [4-(5-Cyclopropyl-4-piperazin-1-yl-pyrido[3,4-d]pyrimidin-2-yl)-pyridin-2-yl]-(S)-indan-1-yl-amine] here?
Its IC50 is < 100 nM.

`CC(C)(Nc1cc(-c2nc(N3CCNCC3)c3c(C4CC4)cncc3n2)ccn1)C(F)(F)F` [Example 598, [4-(5-Cyclopropyl-4-piperazin-1-yl-pyrido[3,4-d]pyrimidin-2-yl)-pyridin-2-yl]-(2,2,2-trifluoro-1,1-dimethyl-ethyl)-amine] was tested. Which IC50 did it give?
The IC50 was < 100 nM.

`OC1CCN(c2nc(-c3ccncc3)nc3c(Cl)nccc23)CC1` [Example 75, 1-[8-chloro-2-(pyridin-4-yl)-pyrido[3,4-d]-pyrimidin-4-yl]-piperidin-4-ol] was tested. Which IC50 did it give?
The IC50 was 1000 to 10000 nM.

With `O=CN[C@H](CNc1nc(-c2ccncc2)nc2cnccc12)Cc1ccccc1` [Example 78, N—[(S)-1-Benzyl-2-(2-pyridin-4-yl-pyrido[3,4-d]pyrimidin-4-ylamino)-ethyl]-formamide] as the molecule, how does the IC50 read?
Its IC50 is 1000 to 10000 nM.
